In ChEMBL document CHEMBL4507269, “Data for DCP probe BAY-386” (2021):
The source made the active and inactive calls. The calls are words filed in the database; no cut-off is given here.

Key:
[1] = target: Proto-oncogene tyrosine-protein kinase receptor Ret (Homo sapiens) (UniProt P07949); conditions: Compound concentration 1000.0 nM
[2] = target: Cyclin-dependent kinase 4 (Homo sapiens) (UniProt P11802); conditions: Compound concentration 1000.0 nM
[3] = target: Muscarinic acetylcholine receptor M5 (Homo sapiens) (UniProt P08912); conditions: Compound concentration 10.0 uM
[4] = target: Ribosomal protein S6 kinase alpha-1 (Homo sapiens) (UniProt Q15418); conditions: Compound concentration 1000.0 nM
Chain of Ribosomal protein S6 kinase alpha-1 (Homo sapiens) (Q15418 whole entry, canonical isoform): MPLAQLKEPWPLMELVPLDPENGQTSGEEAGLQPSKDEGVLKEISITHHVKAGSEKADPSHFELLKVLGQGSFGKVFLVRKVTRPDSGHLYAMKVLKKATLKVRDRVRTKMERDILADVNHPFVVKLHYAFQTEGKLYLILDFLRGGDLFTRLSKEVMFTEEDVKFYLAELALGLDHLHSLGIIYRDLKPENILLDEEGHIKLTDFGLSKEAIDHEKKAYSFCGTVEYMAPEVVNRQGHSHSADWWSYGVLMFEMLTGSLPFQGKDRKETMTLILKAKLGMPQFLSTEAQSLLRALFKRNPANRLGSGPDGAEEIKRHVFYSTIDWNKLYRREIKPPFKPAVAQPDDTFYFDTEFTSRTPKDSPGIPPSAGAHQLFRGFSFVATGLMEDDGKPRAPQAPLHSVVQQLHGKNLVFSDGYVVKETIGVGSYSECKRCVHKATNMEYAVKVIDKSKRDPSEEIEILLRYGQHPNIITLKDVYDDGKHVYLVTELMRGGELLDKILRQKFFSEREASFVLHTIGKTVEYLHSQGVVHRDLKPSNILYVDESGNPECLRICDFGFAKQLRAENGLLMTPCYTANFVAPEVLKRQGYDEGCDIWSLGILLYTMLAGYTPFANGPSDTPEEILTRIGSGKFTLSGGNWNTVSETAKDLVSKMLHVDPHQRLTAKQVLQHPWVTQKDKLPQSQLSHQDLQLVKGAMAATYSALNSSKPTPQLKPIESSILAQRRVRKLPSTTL

[5] = target: Serine/threonine-protein kinase MARK1 (Homo sapiens) (UniProt Q9P0L2); conditions: Compound concentration 1000.0 nM
[6] = target: Serine/threonine-protein kinase PAK 3 (Homo sapiens) (UniProt O75914); conditions: Compound concentration 1000.0 nM
Chain of Serine/threonine-protein kinase PAK 3 (Homo sapiens) (O75914 whole entry, looked up): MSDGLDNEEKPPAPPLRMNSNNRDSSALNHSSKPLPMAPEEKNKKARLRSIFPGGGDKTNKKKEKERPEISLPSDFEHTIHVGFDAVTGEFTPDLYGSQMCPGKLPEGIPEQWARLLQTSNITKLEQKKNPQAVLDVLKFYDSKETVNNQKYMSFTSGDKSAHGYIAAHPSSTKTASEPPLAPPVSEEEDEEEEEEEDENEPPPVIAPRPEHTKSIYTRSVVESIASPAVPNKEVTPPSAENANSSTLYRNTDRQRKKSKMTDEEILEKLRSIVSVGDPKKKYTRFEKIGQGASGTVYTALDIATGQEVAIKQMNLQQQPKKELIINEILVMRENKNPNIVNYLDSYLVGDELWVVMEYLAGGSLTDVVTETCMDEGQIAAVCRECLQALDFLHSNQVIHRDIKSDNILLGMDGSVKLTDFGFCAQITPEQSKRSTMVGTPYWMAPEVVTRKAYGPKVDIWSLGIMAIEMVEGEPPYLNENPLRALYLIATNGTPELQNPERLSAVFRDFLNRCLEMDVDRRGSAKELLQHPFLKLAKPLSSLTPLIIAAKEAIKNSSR

[7] = target: Ribosomal protein S6 kinase alpha-1 (Homo sapiens) (UniProt Q15418); conditions: Compound concentration 1000.0 nM; remark: listed apart in the source
[8] = target: Casein kinase I isoform gamma-2 (Homo sapiens) (UniProt P78368); conditions: Compound concentration 1000.0 nM
[9] = target: Phosphatidylinositol 4-phosphate 5-kinase type-1 gamma (Homo sapiens) (UniProt O60331); conditions: Compound concentration 1000.0 nM
[10] = target: Mitogen-activated protein kinase kinase kinase 9 (Homo sapiens) (UniProt P80192); conditions: Compound concentration 1000.0 nM
[11] = target: Histamine H1 receptor (Homo sapiens) (UniProt P35367); conditions: Compound concentration 10.0 uM
[12] = target: Tyrosine-protein kinase Lck (Homo sapiens) (UniProt P06239); conditions: Compound concentration 1000.0 nM
Chain of Tyrosine-protein kinase Lck (Homo sapiens) (P06239 2-509 limits assumed): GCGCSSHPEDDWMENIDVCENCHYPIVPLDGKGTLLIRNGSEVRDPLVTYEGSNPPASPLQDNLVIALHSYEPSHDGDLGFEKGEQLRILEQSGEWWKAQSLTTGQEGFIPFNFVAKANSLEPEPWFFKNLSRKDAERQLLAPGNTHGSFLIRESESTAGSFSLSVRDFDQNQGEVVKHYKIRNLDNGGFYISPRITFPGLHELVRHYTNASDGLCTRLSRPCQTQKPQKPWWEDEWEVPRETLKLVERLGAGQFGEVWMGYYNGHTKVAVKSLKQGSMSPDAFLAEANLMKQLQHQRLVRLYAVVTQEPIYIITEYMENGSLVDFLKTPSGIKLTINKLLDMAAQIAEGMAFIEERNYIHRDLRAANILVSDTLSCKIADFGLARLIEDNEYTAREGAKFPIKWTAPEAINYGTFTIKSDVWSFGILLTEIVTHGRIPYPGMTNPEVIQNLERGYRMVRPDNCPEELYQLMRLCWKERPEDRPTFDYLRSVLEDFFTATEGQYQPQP

[13] = target: T1, Muscarinic acetylcholine receptor M1 (Homo sapiens) (UniProt P11229); conditions: Compound concentration 10.0 uM
T1 sequence (whole entry): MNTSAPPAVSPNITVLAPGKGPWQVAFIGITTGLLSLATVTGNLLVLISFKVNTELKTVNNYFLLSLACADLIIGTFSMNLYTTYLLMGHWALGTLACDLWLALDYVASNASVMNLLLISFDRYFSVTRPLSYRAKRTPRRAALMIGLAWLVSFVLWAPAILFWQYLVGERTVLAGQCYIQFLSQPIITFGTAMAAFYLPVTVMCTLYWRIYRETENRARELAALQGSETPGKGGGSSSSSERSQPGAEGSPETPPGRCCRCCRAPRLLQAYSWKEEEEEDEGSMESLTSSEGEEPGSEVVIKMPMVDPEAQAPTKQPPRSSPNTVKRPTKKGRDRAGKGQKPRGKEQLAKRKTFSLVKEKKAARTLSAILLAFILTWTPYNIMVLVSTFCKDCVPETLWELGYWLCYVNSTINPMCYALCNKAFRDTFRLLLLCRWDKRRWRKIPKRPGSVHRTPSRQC

[14] = target: MAP kinase-interacting serine/threonine-protein kinase 1 (Homo sapiens) (UniProt Q9BUB5); conditions: Compound concentration 1000.0 nM
Chain of MAP kinase-interacting serine/threonine-protein kinase 1 (Homo sapiens) (Q9BUB5 whole entry, looked up): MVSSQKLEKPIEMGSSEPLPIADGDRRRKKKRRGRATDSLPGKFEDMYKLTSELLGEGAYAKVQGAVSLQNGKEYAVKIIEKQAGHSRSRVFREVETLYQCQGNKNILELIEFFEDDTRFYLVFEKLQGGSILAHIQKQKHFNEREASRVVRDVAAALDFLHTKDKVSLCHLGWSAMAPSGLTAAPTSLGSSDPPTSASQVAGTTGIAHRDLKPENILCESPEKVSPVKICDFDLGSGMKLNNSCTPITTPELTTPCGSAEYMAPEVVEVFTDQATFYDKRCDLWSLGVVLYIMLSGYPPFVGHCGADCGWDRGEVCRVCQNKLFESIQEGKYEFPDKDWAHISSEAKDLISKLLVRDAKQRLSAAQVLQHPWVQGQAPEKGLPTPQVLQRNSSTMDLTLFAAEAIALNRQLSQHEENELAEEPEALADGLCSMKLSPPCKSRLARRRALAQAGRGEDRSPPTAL

[15] = target: Mast/stem cell growth factor receptor Kit (Homo sapiens) (UniProt P10721); conditions: Compound concentration 1000.0 nM
[16] = system: Receptor-type tyrosine-protein kinase FLT3 (Homo sapiens), P36888 [K663Q]; conditions: Compound concentration 1000.0 nM
[17] = target: Sodium-dependent dopamine transporter (Homo sapiens) (UniProt Q01959); conditions: Compound concentration 10.0 uM
Chain of Sodium-dependent dopamine transporter (Homo sapiens) (Q01959 whole entry): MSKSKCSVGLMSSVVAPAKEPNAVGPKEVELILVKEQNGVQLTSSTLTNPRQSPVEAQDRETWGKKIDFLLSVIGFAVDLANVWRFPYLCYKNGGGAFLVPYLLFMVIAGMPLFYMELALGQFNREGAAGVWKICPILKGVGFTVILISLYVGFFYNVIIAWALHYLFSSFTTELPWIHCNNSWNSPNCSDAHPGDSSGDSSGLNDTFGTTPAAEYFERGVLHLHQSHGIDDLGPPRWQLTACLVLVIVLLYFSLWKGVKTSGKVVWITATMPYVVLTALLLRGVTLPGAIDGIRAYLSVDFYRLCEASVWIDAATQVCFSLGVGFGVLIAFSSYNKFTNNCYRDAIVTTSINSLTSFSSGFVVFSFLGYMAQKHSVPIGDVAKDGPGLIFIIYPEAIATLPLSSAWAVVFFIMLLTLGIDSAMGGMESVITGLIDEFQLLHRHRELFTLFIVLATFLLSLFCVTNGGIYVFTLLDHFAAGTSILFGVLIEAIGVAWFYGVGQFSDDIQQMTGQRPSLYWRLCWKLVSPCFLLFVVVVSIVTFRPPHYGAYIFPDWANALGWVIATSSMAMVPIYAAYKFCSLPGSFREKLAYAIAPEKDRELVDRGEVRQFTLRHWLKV

[18] = target: Serine/threonine-protein kinase MRCK gamma (Homo sapiens) (UniProt Q6DT37); conditions: Compound concentration 1000.0 nM
[19] = target: Serine/threonine-protein kinase DCLK1 (Homo sapiens) (UniProt O15075); conditions: Compound concentration 1000.0 nM
Chain of Serine/threonine-protein kinase DCLK1 (Homo sapiens) (O15075 whole entry): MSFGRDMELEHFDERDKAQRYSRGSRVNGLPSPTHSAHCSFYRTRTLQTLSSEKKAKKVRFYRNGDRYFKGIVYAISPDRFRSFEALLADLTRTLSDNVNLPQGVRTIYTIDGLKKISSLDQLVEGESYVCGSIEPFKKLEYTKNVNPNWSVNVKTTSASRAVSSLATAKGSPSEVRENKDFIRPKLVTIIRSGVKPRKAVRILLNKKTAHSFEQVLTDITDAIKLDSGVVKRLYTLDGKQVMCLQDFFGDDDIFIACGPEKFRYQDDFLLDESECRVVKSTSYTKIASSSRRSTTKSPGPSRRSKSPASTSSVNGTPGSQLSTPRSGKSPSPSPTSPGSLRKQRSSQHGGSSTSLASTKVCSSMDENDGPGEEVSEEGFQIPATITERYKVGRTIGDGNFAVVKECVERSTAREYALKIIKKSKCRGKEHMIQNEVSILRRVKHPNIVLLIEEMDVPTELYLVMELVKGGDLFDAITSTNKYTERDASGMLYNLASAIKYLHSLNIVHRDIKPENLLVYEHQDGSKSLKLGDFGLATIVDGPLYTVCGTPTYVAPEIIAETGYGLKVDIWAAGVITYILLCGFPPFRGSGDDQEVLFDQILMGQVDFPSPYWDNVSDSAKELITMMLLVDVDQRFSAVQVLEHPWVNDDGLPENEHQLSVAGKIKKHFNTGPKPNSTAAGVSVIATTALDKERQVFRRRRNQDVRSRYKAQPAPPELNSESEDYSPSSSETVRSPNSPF

[20] = system: Proto-oncogene tyrosine-protein kinase receptor Ret (Homo sapiens), P07949 [M918T]; conditions: Compound concentration 1000.0 nM
[21] = target: Mitogen-activated protein kinase kinase kinase 10 (Homo sapiens) (UniProt Q02779); conditions: Compound concentration 1000.0 nM
Chain of Mitogen-activated protein kinase kinase kinase 10 (Homo sapiens) (Q02779 whole entry, looked up): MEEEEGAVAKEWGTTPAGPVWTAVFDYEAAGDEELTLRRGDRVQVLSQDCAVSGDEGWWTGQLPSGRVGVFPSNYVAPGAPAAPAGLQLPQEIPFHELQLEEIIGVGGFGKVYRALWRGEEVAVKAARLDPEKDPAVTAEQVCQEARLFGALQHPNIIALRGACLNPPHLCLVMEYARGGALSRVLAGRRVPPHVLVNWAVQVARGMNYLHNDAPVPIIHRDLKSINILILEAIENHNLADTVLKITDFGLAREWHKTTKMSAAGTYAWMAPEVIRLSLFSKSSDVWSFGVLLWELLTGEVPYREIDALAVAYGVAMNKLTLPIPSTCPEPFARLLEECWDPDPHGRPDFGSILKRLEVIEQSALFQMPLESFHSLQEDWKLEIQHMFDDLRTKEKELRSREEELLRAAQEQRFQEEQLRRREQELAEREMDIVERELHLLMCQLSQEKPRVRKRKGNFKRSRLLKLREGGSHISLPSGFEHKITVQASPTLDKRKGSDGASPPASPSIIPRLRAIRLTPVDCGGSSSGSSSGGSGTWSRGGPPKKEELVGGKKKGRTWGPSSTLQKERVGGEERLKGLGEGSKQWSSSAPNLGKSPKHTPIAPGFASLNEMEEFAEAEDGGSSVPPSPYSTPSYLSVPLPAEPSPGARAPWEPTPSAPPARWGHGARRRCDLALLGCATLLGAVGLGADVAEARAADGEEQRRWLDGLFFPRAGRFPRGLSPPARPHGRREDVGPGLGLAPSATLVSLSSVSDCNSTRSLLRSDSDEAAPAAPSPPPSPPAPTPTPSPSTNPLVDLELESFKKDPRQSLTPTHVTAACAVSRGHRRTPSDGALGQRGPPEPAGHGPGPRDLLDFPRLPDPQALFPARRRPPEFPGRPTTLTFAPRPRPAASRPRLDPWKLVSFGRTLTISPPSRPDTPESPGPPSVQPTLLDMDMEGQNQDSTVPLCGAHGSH

[22] = target: T2, Proteinase-activated receptor 1 (Homo sapiens, UniProt P25116); experiment: Functional cellular assay (HEK cells) (F2R)
T2 sequence (P25116 whole entry): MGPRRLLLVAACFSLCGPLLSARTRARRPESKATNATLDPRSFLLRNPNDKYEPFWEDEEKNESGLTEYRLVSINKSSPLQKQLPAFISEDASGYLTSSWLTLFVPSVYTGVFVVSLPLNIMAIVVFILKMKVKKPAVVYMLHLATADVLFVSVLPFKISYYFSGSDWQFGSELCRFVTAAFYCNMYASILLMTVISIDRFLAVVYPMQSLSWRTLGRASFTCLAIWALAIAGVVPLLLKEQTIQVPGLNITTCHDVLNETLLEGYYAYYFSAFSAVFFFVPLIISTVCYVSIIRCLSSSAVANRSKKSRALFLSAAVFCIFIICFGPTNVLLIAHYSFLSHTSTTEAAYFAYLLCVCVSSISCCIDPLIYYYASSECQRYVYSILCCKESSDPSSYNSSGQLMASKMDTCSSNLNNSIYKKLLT

[23] = target: Serine/threonine-protein kinase/endoribonuclease IRE1 (Homo sapiens) (UniProt O75460); conditions: Compound concentration 1000.0 nM
[24] = target: Non-receptor tyrosine-protein kinase TYK2 (Homo sapiens) (UniProt P29597); conditions: Compound concentration 1000.0 nM
[25] = system: Epidermal growth factor receptor (Homo sapiens), P00533 [L861Q]; conditions: Compound concentration 1000.0 nM
[26] = target: Serine/threonine-protein kinase Nek7 (Homo sapiens) (UniProt Q8TDX7); conditions: Compound concentration 1000.0 nM
Chain of Serine/threonine-protein kinase Nek7 (Homo sapiens) (Q8TDX7 whole entry, looked up, canonical isoform): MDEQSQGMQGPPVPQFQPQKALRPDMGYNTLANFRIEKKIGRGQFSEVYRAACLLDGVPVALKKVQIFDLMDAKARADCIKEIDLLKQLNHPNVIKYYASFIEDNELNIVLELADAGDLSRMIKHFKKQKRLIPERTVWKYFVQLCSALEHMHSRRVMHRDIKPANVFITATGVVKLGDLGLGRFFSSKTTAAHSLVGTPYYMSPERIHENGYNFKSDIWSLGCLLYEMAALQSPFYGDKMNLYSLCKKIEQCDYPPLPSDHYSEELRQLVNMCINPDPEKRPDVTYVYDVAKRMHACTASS

[27] = target: Phosphorylase b kinase regulatory subunit alpha, liver isoform (Homo sapiens) (UniProt P46019); conditions: Compound concentration 1000.0 nM
[28] = target: Receptor tyrosine-protein kinase erbB-3 (Homo sapiens) (UniProt P21860); conditions: Compound concentration 1000.0 nM
[29] = target: Kappa-type opioid receptor (Homo sapiens) (UniProt P41145); conditions: Compound concentration 10.0 uM
[30] = target: Tyrosine-protein kinase Mer (Homo sapiens) (UniProt Q12866); conditions: Compound concentration 1000.0 nM
[31] = system: Epidermal growth factor receptor (Homo sapiens), P00533 [UNDEFINED MUTATION]; conditions: Compound concentration 1000.0 nM
[32] = target: Activin receptor type-2A (Homo sapiens) (UniProt P27037); conditions: Compound concentration 1000.0 nM
[33] = target: Cyclin-dependent kinase 13 (Homo sapiens) (UniProt Q14004); conditions: Compound concentration 1000.0 nM

Row | SMILES | residual activity [1] [%] | residual activity [2] [%] | inhibition [3] [%] | residual activity [4] [%] | residual activity [5] [%] | residual activity [6] [%] | residual activity [7] [%] | residual activity [8] [%] | residual activity [9] [%] | residual activity [10] [%] | inhibition [11] [%] | residual activity [12] [%] | inhibition [13] [%] | residual activity [14] [%] | residual activity [15] [%] | residual activity [16] [%] | inhibition [17] [%] | residual activity [18] [%] | residual activity [19] [%] | residual activity [20] [%] | further results
1 | O=C(N1CCS(=O)(=O)CC1)N1C[C@H](c2ccc(OC(F)(F)F)cc2)C[C@H](c2nc(C3CC3)no2)C1 [BAY-386] | 93 | 18 | 4.1 | 100 | 100 | 100 | 100 | 89 | 100 | 100 | -5.32 | 100 | 2.07 | 100 | 100 | 100 | 0.01 | 100 | 100 | 92 | residual activity [21]: 99%; IC50 [22]: 0.01 µM (active); residual activity [23]: 96%; residual activity [24]: 53%; residual activity [25]: 68%; residual activity [26]: 100%; residual activity [27]: 100%; residual activity [28]: 100%; inhibition [29]: 1.29%; residual activity [30]: 100%; residual activity [31]: 77%; residual activity [32]: 98%; residual activity [33]: 100%
2 | Cc1noc([C@H]2C[C@@H](c3ccc(C(F)(F)F)cc3)CN(C(=O)N3CCS(=O)(=O)C3)C2)n1 [BAY-448] | 100 | 100 | -1.71 | 87 | 91 | 100 | 100 | 100 | 100 | 100 | 11.5 | 100 | -7.31 | 99 | 100 | 100 | 5.46 | 100 | 75 | 100 | residual activity [21]: 96%; IC50 [22]: > 10 µM (not active); residual activity [23]: 100%; residual activity [24]: 100%; residual activity [25]: 78%; residual activity [26]: 100%; residual activity [27]: 100%; residual activity [28]: 100%; inhibition [29]: 7.69%; residual activity [30]: 100%; residual activity [31]: 83%; residual activity [32]: 100%; residual activity [33]: 96%
